The values that follow come from paper PMC7949142, “NAD(H) phosphates mediate tetramer assembly of human C-terminal binding protein (CtBP)” (The Journal of Biological Chemistry, 2021).

Structures are written as SMILES.

Common to all, as to format: binding
For experiment [1], the target named is T1, CtBP2 (Homo sapiens, UniProt P56545).
T1 construct: 31–445
Briefly: SEC-MALS tetramer assembly, concentration dependence.

Experiment [2] concerns the target T2, CtBP1 (Homo sapiens, UniProt Q13363). The description is as above. Also on record: 28–440.
For experiment [3], the target named is T2, CtBP1. Put plainly: SEC-MALS tetramer assembly. Also noted: 28–375 (crystal); 28–440 (SEC-MALS). (In general: SEC sorts molecules by how far they enter the pores of the column.)

A word on the EC50: it is the concentration that produces a half-maximal response. `Nc1ncnc2c1ncn2[C@@H]1O[C@H](COP(=O)(O)OP(=O)(O)O)[C@@H](O)[C@H]1O` [ADP]: the figures for the EC50 in experiment [1] and in experiment [2] were about 43 µM and about 52 µM, respectively.
`Nc1ncnc2c1ncn2[C@@H]1O[C@H](COP(=O)(O)O)[C@@H](O)[C@H]1O` [AMP] displayed an EC50 in experiment [3] of about 66 µM.
